Reference: patent US20250243180A1, “TARGETED PROTEIN DEGRADATION” (Monte Rosa Therapeutics AG, priority 2023, published 2025)
Where two headings read alike, the source gives them in different places.

Key:
[1] = biological target: CRBN-DDB1 (Homo sapiens (Human), UniProt Q96SW2); assay: Compound binding to CRBN by HTRF assay
Outline: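 HTRF displacement of Cy5-thalidomide probe (100 nM) from His-tagged CRBN-DDB1 (2.5 nM) with anti-His terbium cryptate, in HEPES/NaCl/TCEP/EDTA/Tween20 buffer; 11-point 1:3 dilution series, 30 min at ambient temperature. Signal (665/620 nm) normalized to lenalidomide and DMSO controls; EC50 fitted, Ki by Cheng-Prusoff from geometric mean EC50.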

[2] = biological target: NEK7 (Homo sapiens (Human), UniProt Q8TDX7+Q96SW2); assay: NEK7 NanoBiT degradation assay in Cal51 NEK7 NanoBiT cell line; format: cell-based; details: Cal51 NEK7 NanoBiT cells, 24 hours; for Dmax: CAL-51
Chain of NEK7 (Q8TDX7 whole entry): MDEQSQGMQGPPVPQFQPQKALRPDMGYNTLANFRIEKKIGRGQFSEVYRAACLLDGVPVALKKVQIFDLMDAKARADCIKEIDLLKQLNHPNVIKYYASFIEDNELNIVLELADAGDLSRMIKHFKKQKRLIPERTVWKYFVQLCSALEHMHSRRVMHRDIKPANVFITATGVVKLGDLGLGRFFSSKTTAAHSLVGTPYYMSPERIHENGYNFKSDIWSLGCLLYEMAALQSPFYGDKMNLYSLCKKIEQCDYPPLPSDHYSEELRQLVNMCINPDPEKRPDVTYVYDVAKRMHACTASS
Chain of NEK7 (Q96SW2 whole entry): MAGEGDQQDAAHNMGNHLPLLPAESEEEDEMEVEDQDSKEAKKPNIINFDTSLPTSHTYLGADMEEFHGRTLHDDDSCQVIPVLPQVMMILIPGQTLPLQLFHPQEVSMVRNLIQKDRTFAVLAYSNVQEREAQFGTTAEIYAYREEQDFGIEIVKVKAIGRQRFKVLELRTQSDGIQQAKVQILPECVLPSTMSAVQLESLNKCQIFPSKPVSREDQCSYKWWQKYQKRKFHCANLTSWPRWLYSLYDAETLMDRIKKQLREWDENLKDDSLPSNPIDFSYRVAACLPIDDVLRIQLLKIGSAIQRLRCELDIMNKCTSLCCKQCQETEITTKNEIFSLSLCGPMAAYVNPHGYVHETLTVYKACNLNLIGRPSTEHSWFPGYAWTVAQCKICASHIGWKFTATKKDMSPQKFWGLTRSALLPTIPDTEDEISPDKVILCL
Chain of NEK7 (Q16531 2-1140 partner): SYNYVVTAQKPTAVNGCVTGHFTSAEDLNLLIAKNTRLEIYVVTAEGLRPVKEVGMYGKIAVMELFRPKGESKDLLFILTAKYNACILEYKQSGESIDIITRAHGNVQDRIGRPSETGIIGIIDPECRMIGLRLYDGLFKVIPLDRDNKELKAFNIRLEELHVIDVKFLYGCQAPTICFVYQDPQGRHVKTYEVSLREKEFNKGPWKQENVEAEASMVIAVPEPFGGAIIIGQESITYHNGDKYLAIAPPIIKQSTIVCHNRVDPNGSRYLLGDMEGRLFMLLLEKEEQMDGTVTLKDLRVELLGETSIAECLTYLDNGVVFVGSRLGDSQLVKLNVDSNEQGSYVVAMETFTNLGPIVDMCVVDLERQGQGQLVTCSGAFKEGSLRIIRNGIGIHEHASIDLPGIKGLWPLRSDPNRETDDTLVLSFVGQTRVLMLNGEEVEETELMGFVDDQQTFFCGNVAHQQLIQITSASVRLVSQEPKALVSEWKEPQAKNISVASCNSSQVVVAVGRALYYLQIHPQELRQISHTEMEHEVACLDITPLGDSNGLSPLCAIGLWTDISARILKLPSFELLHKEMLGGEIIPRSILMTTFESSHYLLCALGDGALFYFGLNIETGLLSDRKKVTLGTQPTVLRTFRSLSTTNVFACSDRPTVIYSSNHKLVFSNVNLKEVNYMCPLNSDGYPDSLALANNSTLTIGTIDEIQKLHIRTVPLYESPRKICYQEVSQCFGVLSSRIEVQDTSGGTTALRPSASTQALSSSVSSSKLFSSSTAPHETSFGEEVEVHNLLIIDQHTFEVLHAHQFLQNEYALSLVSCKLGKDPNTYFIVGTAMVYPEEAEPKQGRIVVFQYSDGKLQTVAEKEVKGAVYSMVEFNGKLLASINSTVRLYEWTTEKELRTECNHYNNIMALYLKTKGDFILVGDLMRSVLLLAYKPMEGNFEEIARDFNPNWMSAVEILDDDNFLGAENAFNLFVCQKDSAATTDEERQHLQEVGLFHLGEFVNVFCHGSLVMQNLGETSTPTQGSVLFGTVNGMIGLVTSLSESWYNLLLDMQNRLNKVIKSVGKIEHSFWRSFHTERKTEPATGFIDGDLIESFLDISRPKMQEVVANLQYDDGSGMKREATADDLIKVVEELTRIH
Outline: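 Cal51 cells with CRISPR knock-in HiBiT-tagged endogenous NEK7 plus stable LgBiT, in live-cell Endurazine medium, seeded 16 h before dosing. Compounds at final 1 μM to 0.05 nM for 24 h at 37 °C, then luminescence read. Response normalized to plate controls and fitted with a 4-parameter logistic giving EC50.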

[3] = tested on: Caspase-1 activity; assay: Caspase-1 activity in human monocyte-derived macrophages, LPS/nigericin stimulation; format: cell-based; details: Macrophage, 24 h pre-treatment, LPS 3 h then 10 μM nigericin 1 h, read-out: Caspase-1 IC50 (NIG)
Protocol: (§1) Human monocytes were enriched and isolated from a buffy coat of healthy donor whole blood with a RosetteSep™ Human Monocyte Enrichment Cocktail (Cat.No. 15068, StemCell) and Ficoll-Plaque PLUS (Cat.No. H8889, Sigma). Monocytes were differentiated into macrophages by treatment with 100 ng/mL M-CSF for 6 days at 37° C., 5% CO2. Differentiated macrophages were seeded overnight (50,000 cells/well) in 100 µL of medium in a 96-well, white-bottom plate at 37° C., 5% CO2. Cells were treated with a concentration range of MGD for 24 hours prior to stimulation with nigericin. Macrophages were primed with […] LPS for 3 h followed by 1 h stimulation with 10 μM nigericin. Media of stimulated macrophages were collected and assayed for caspase 1 activity directly (Promega G9951), according to manufacturer's instructions. For IL-1β release assay, media of stimulated macrophages were collected and stored at −20° C., then thawed at 4° C. before assaying for IL-1β activity (Promega W6011), according to manufacturer's instructions.

[4] = tested on: IL-1β release; assay: IL-1β release in human monocyte-derived macrophages, LPS/nigericin stimulation; format: cell-based; details: Macrophage, 24 h pre-treatment, LPS 3 h then 10 μM nigericin 1 h, read-out: IL-1b IC50 (NIG)
Protocol: as §1

[5] = NEK7 degradation, read-out: NanoBiT Dmax
[6] = NEK7 degradation, read-out: NanoBiT DC50

Chain of CRBN-DDB1 (Q96SW2 whole entry): as the sequence (Q96SW2 whole entry) above
Chain of CRBN-DDB1 (Q16531 whole entry partner): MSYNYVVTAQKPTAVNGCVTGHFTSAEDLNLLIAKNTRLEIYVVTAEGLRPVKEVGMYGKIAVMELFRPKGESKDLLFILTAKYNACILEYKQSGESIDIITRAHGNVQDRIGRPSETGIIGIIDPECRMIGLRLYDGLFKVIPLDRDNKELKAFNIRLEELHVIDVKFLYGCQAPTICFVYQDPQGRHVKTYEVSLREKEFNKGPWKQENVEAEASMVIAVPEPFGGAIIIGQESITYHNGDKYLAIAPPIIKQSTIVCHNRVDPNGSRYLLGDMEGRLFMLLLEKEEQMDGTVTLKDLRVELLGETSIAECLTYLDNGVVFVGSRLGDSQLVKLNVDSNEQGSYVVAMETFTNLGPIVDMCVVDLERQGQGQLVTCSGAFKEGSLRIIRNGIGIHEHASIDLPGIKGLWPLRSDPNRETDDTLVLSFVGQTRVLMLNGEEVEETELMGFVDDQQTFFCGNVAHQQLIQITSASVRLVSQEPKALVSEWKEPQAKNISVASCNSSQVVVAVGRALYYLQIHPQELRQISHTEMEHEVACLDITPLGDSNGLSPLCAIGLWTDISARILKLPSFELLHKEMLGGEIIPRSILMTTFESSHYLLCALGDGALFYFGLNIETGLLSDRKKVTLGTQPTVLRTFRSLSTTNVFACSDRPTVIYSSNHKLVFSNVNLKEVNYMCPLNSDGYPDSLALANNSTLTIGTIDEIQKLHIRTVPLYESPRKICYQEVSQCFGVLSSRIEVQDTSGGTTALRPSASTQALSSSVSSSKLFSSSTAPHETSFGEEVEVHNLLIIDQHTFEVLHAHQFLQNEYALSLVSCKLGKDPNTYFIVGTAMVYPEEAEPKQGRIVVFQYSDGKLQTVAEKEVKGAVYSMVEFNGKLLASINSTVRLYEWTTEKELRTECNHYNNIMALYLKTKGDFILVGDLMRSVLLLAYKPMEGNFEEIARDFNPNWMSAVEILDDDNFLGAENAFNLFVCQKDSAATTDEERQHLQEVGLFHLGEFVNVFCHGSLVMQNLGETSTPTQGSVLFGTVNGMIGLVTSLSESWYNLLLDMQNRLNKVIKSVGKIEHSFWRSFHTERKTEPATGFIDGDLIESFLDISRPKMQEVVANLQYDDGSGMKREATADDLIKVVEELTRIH

Structure (SMILES) | EC50 [1] [nM] | EC50 ([1]; HTRF class, Cereblon binding) [nM] | Dmax ([2]; read-out: NEK7 NanoBiT Dmax) [%] | Dmax [2, 5] [%] | DC50 ([2]; read-out: NEK7 NanoBiT DC50) [nM] | DC50 [2, 6] [nM] | IC50 [3] [nM] | IC50 [4] [nM]
Cc1cnc(C(C)(C)C(=O)NCc2cc(Cl)c(C3CCC(=O)NC3=O)c(Cl)c2)nc1 (stereo not shown) [Compound 14, N-(3,5-dichloro-4-(2,6-dioxopiperidin-3-yl)benzyl)-2-methyl-2-(5-methylpyrimidin-2-yl)-propanamide] | 110 | 100 to 1000 | 89 | > 75 | 9 | ≤ 100 | 1.85 | 1.95
CC(C)(C(=O)NCc1cc(Cl)c(C2CCC(=O)NC2=O)c(Cl)c1)c1ncc(C#N)cn1 (stereo not shown) [Compound 16, 2-(5-cyanopyrimidin-2-yl)-N-(3,5-dichloro-4-(2,6-dioxopiperidin-3-yl)benzyl)-2-methyl-propanamide] | 120 | 100 to 1000 | 95 | > 75 | 4 | ≤ 100 | 0.32 | 0.56
